Results taken from US7572777B2, “Florfenicol prodrug having improved water solubility” (Schering-Plough Animal Health Corp., priority 2003, dated 2009).

Key:
[1] = Conversion of prodrug to florfenicol in rat serum; conditions: 37° C., after 4 hours (FIG. 1)
[2] = Conversion of prodrug to florfenicol in bovine serum; conditions: 37° C., after 4 hours (FIG. 1)
physchem = type: physicochemical
Protocol: Successive aliquots of solid phosphate ester prodrug (sodium salt) were added to water with agitation. Addition was continued until mixing became difficult due to high viscosity, at which point all of the prodrug remained in solution.

[3] = Stability of the phosphate prodrug in aqueous solutions; type: physicochemical; conditions: for % Compound B (cyclic phosphate formed) / % Compound C (free florfenicol formed) / % Compound A: 40° C., 30 days under nitrogen; for % Compound A: initial purity 98.3%
Excerpt: Although relatively stable in aqueous solutions, over prolonged periods of time the phosphate ester of florfenicol (Formula I) undergoes slow degradation resulting in the release of free florfenicol as well as the formation of cyclic phosphate diester. The formation of the cyclic diester occurs through the phosphate anion displacement of fluorine and requires participation of the phosphate di-anion, which is much more nucleophilic than the corresponding mono-anion. Therefore, the rate of formation of the cyclic diester is largely dependent on the pH of the solution or more generally, on the degree of the phosphate ionization. […]. However, even such small changes of pH result in noticeable differences of the amount of the cyclic phosphate diester formed.

[4] = Conversion of florfenicol phosphate to florfenicol in cattle (plasma florfenicol after iv dosing); type: in vivo; conditions: calves, approximately 10 mg/kg, HPLC-MS/MS (FIG. 2)
Excerpt: […]. Each symbol denotes the data from a different calf.

[5] = Conversion of florfenicol phosphate to florfenicol in dogs (plasma florfenicol after iv dosing); type: in vivo; conditions: approximately 11 mg/kg, HPLC-MS/MS (FIG. 3)
Protocol: . The plot depicts florfenicol concentrations in the plasma of three dogs following intravenous administration of the florfenicol phosphate ester prodrug at a dose of approximately 11.1 mg/kg of body weight, which equates to a florfenicol equivalent dose of 8.3 mg/kg. Each symbol denotes the data from a different dog.

[6] = Conversion of florfenicol phosphate to florfenicol in swine (plasma florfenicol after iv dosing); type: in vivo; conditions: pigs, approximately 6.7 mg/kg (FIG. 4)
Protocol: FIG. 4 is a graphic presentation of florfenicol concentrations in the plasma of pigs following intravenous administration of florfenicol phosphate ester. The plot depicts florfenicol concentrations detected in the plasma of three pigs following intravenous administration of the florfenicol phosphate ester prodrug at a dose of approximately 6.7 mg/kg of body weight, which equates to a florfenicol equivalent dose of 5 mg/kg. Each symbol denotes the data from a different pig.
[…]. Plasma samples were collected after drug administration and analyzed for concentrations of florfenicol. […].

[7] = pH 4.48 adjusted with ethanolamine, 300 mg/mL active florfenicol
[8] = pH 4.54, aqueous solution 300 mg/mL active florfenicol
[9] = pH 4.95, aqueous solution 300 mg/mL active florfenicol
[10] = pH 5.03 adjusted with ethanolamine, 300 mg/mL active florfenicol
[11] = pH 5.51 adjusted with ethanolamine, 300 mg/mL active florfenicol
[12] = pH 5.53, aqueous solution 300 mg/mL active florfenicol
[13] = listed as Florfenicol phosphate

## CS(=O)(=O)c1ccc([C@@H](OC(=O)CCCC(=O)O)[C@@H](CF)NC(=O)C(Cl)Cl)cc1 [glutarate ester of florfenicol]
[1]
  conversion (hydrolysis) to florfenicol: about 3%
[2]
  conversion (hydrolysis) to florfenicol: approximately 6%

## CS(=O)(=O)c1ccc([C@@H](OP(=O)(O)O)[C@@H](CF)NC(=O)C(Cl)Cl)cc1 [florfenicol phosphate ester]
physchem; water, thermodynamic from solid
  solubility: > 600 mg/mL
[3]; below pH 4 or at neutral or higher pH ranges
  stability in aqueous solution versus pH: less stable
[3]; close to one equivalent of sodium hydroxide or ethanolamine added to concentrated aqueous solution, approximately pH 4.5 to pH 5.5
  stability of aqueous solutions of the prodrug: Satisfactory stability
[3]; increased ionic strength
  effect of ionic strength on aqueous stability: reduces the aqueous stability
[3]; [7]
  % Compound B (cyclic phosphate formed): 0.18%
  % Compound C (free florfenicol formed): 0.92%
  % Compound A: 93.43%
[3]; [8]
  % Compound B (cyclic phosphate formed): 0.17%
  % Compound C (free florfenicol formed): 1.02%
  % Compound A: 94.40%
[3]; [9]
  % Compound B (cyclic phosphate formed): 0.37%
  % Compound C (free florfenicol formed): 1.01%
  % Compound A: 93.38%
[3]; [10]
  % Compound B (cyclic phosphate formed): 0.58%
  % Compound C (free florfenicol formed): 0.86%
  % Compound A: 95.83%
[3]; [11]
  % Compound B (cyclic phosphate formed): 1.25%
  % Compound C (free florfenicol formed): 0.70%
  % Compound A: 93.83%
[3]; [12]
  % Compound B (cyclic phosphate formed): 1.41%
  % Compound C (free florfenicol formed): 0.93%
  % Compound A: 93.06%
[4]
  plasma florfenicol concentrations following treatment: substantial concentrations of florfenicol were detected
[4]; [13]
  plasma florfenicol concentrations following treatment: increased rapidly
[5]
  plasma florfenicol concentrations following treatment: substantial concentrations of florfenicol were detected
[5]; [13]
  plasma florfenicol concentrations following treatment: increased rapidly
[6]
  plasma florfenicol concentrations following treatment: substantial concentrations of florfenicol were detected
[6]; [13]
  plasma florfenicol concentrations following treatment: increased rapidly

## CS(=O)(=O)c1ccc([C@@H](OP(=O)([O-])[O-])[C@@H](CF)NC(=O)C(Cl)Cl)cc1.[Na+].[Na+] [sodium salt of florfenicol phosphate, [1R, 2S-1-(4-Methanesulfonylphenyl)-2-(2,2-dichloroacetylamino)-3-fluoropropyl]phosphate disodium salt]
physchem
  aqueous solubility (original concentration by HPLC): greater than 700 mg/mL
[3]; heating a solution of the bis sodium salt
  conversion of the prodrug into cyclic diester: almost quantitative conversion
